Earlier results, collected in US12070034B2, “Synergistic herbicidal combinations” (UPL LTD, priority 2017, dated 2024).

Details: acid form, before neutralisation with ammonium phosphate dibasic

Compound | solubility
Nc1c(Cl)c(Cl)nc(C(=O)O)c1Cl [Picloram acid] | 560 mg/I
O=C(O)COc1ccc(Cl)cc1Cl [2,4-D acid] | 311 mg/I
